We go through 17 compounds from US10125100B2, “Kinase inhibitors” (Respivert Limited, priority 2014, dated 2018).

The subject of this data set is Jurkat cells. In words: (r) Cell cytotoxicity assay. Particulars: 24 hours. It is filed as cell-based, human. In outline: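 Viability read by flow cytometry as the fraction of propidium iodide-negative cells (7.5 μg/mL PI, 15 min), relative to 1.0% DMSO control. Beforehand, 1×10^5 Jurkat cells in RPMI/10% FBS were treated 24 h at 37° C., 5% CO2 with test compound at final 20, 5 or 1 μg/mL.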

`COc1cc(Nc2cc(Oc3ccc(NC(=O)Nc4cc(C(C)(C)C)cc(NS(C)(=O)=O)c4OC)c4ccccc34)ccn2)ccc1C(=O)NCCN1CC[C@@H](O)C1` [17(cr), (R)-4-((4-((4-(3-(5-(tert-Butyl)-2-methoxy-3-(methylsulfonamido)phenyl)ureido)-naphthalen-1-yl)oxy)pyridin-2-yl)amino)-N-(2-(3-hydroxypyrrolidin-1-yl)ethyl)-2-methoxybenzamide]: the “% Viability at 1 μg/mL” value was 81.1%, the “% Viability at 5 μg/mL” value amounted to 18.0% and the “% Viability at 20 μg/mL” value amounted to 0.9%.

As to `COc1cc(Nc2cc(Oc3ccc(NC(=O)Nc4cc(C(C)(C)C)cc(NS(C)(=O)=O)c4OC)c4ccccc34)ccn2)ccc1C(=O)NC(C)CN1CCN(C)CC1` (stereo not drawn) [17(bl), 4-((4-((4-(3-(5-(tert-Butyl)-2-methoxy-3-(methylsulfonamido)phenyl)ureido)naphthalen-1-yl)oxy)pyridin-2-yl)amino)-2-methoxy-N-(1-(4-methylpiperazin-1-yl)propan-2-yl)benzamide], the “% Viability at 1 μg/mL” value came out at 103.6%, the “% Viability at 5 μg/mL” value is given as 0.2% and the “% Viability at 20 μg/mL” value stood at 0.5%.

As to `COc1cc(Nc2cc(Oc3ccc(NC(=O)Nc4cc(C(C)(C)C)cc(NS(C)(=O)=O)c4OC)c4ccccc34)ccn2)ccc1CP(C)(=O)O` [Example 70, (4-((4-((4-(3-(5-(tert-Butyl)-2-methoxy-3-(methylsulfonamido)phenyl)ureido)naphthalen-1-yl)oxy)pyridin-2-yl)amino)-2-methoxybenzyl)(methyl)phosphinic acid], the “% Viability at 1 μg/mL” value was 95.3%, the “% Viability at 5 μg/mL” value is 91.9% and the “% Viability at 20 μg/mL” value was 63.8%.

Regarding `COc1cc(Nc2cc(Oc3ccc(NC(=O)Nc4cc(C(C)(C)C)cc(NS(C)(=O)=O)c4OC)c4ccccc34)ccn2)ccc1C(=O)N(C)CCN1CCOCC1` [17(ab), 4-[[4-[[4-[[5-tert-butyl-3-(methanesulfonamido)-2-methoxy-phenyl]carbamoylamino]-1-naphthyl]oxy]-2-pyridyl]amino]-2-methoxy-N-methyl-N-(2-morpholinoethyl)benzamide], the “% Viability at 1 μg/mL” value was 108.6%, the “% Viability at 5 μg/mL” value was 95.6% and the “% Viability at 20 μg/mL” value came to 93.9%.

In the case of `COc1cc(Nc2cc(Oc3ccc(NC(=O)Nc4cc(C(C)(C)C)cc(NS(C)(=O)=O)c4OC)c4ccccc34)ccn2)ccc1C(=O)NCCN1CCN(C)CC1(C)C` [17(bi), 4-((4-((4-(3-(5-(tert-Butyl)-2-methoxy-3-(methylsulfonamido)phenyl)ureido)naphthalen-1-yl)oxy)pyridin-2-yl)amino)-2-methoxy-N-(2-(2,2,4-trimethylpiperazin-1-yl)ethyl)benzamide], the “% Viability at 1 μg/mL” value came to 97.4%, the “% Viability at 5 μg/mL” value came to 0.8% and the “% Viability at 20 μg/mL” value turned out to be 0.6%.

On to `COc1cc(Nc2cc(Oc3ccc(NC(=O)Nc4cc(C(C)(C)C)cc(NS(C)(=O)=O)c4OC)c4ccccc34)ccn2)cc(OC)c1C(=O)NCC1CCN(C)CC1` [17(ca), 4-((4-((4-(3-(5-(tert-Butyl)-2-methoxy-3-(methylsulfonamido)phenyl)ureido)naphthalen-1-yl)oxy)pyridin-2-yl)amino)-2,6-dimethoxy-N-((1-methylpiperidin-4-yl)methyl)benzamide], for which the “% Viability at 1 μg/mL” value was determined as 92.6%, the “% Viability at 5 μg/mL” value came out at 94.0% and the “% Viability at 20 μg/mL” value is on record as 75.8%.

As for `COc1cc(Nc2cc(Oc3ccc(NC(=O)Nc4cc(C(C)(C)C)cc(NS(C)(=O)=O)c4OC)c4ccccc34)ccn2)cc(OC)c1C(=O)N1CCN(CCN(C)C)CC1` [17(cg), N-(5-(tert-Butyl)-3-(3-(4-((2-((4-(4-(2-(dimethylamino)ethyl)piperazine-1-carbonyl)-3,5-dimethoxyphenyl)amino)pyridin-4-yl)oxy)naphthalen-1-yl)ureido)-2-methoxyphenyl)methane sulfonamide], the “% Viability at 1 μg/mL” value turned out to be 96.1%, the “% Viability at 5 μg/mL” value is 95.3% and the “% Viability at 20 μg/mL” value amounted to 92.3%.

Turning to `COc1cc(Nc2cc(Oc3ccc(NC(=O)Nc4cc(C(C)(C)C)cc(C(=O)NCCO)c4OC)c4ccccc34)ccn2)ccc1C(=O)NCCN1CC[S+]([O-])CC1` [Example 32, 5-(tert-Butyl)-N-(2-hydroxyethyl)-2-methoxy-3-(3-(4-((2-((3-methoxy-4-((2-(1-oxidothiomorpholino)ethyl)carbamoyl)phenyl)amino)pyridin-4-yl)oxy)naphthalen-1-yl)ureido)benzamide], the “% Viability at 1 μg/mL” value worked out at 95.4%, the “% Viability at 5 μg/mL” value is listed as 43.1% and the “% Viability at 20 μg/mL” value was found to be 2.5%.

For the compound `COc1cc(Nc2cc(Oc3ccc(NC(=O)Nc4cc(C(C)(C)C)cc(NS(C)(=O)=O)c4OC)c4ccccc34)ccn2)ccc1C(=O)NCCCC[C@H](N)C(=O)O` [17(bu), (S)-2-Amino-6-(4-((4-((4-(3-(5-(tert-butyl)-2-methoxy-3-(methylsulfonamido)phenyl)-ureido)naphthalen-1-yl)oxy)pyridin-2-yl)amino)-2-methoxybenzamido)hexanoic acid], the “% Viability at 1 μg/mL” value was found to be 92.6%, the “% Viability at 5 μg/mL” value worked out at 92.6% and the “% Viability at 20 μg/mL” value worked out at 91.7%.

Take `COc1cc(Nc2cc(Oc3ccc(NC(=O)Nc4cc(NS(C)(=O)=O)cc(C(C)(C)C)c4)c4ccccc34)ccn2)ccc1C(=O)NCCN1CCN(C)CC1` [17(bo), 4-((4-((4-(3-(3-(tert-Butyl)-5-(methylsulfonamido)phenyl)ureido)naphthalen-1-yl)oxy)pyridin-2-yl)amino)-2-methoxy-N-(2-(4-methylpiperazin-1-yl)ethyl)benzamide]: the “% Viability at 1 μg/mL” value was 98.5%, the “% Viability at 5 μg/mL” value turned out to be 45.3% and the “% Viability at 20 μg/mL” value was 14.0%.

For `COc1cc(Nc2cc(Oc3ccc(NC(=O)Nc4cc(C(C)(C)C)cc(NS(C)(=O)=O)c4OC)c4ccccc34)ccn2)ccc1C(=O)NCCC(=O)N1C[C@H](O)[C@@H](O)[C@H](O)[C@H]1CO` [17(cf), 4-((4-((4-(3-(5-(tert-Butyl)-2-methoxy-3-(methylsulfonamido)phenyl)ureido)naphthalen-1-yl)oxy)pyridin-2-yl)amino)-2-methoxy-N-(3-oxo-3-((2R,3R,4R,5S)-3,4,5-trihydroxy-2-(hydroxymethyl)piperidin-1-yl)propyl)benzamide], the “% Viability at 1 μg/mL” value was 96.7%, the “% Viability at 5 μg/mL” value came to 96.7% and the “% Viability at 20 μg/mL” value was found to be 96.8%.

`COc1c(NC(=O)Nc2ccc(Oc3ccnc(Nc4ccc(C(=O)NCCOCCOCCO)c(N(C)C)c4)c3)c3ccccc23)cc(C(C)(C)C)cc1NS(C)(=O)=O` [17(bt), 4-((4-((4-(3-(5-(tert-Butyl)-2-methoxy-3-(methylsulfonamido)phenyl)ureido)naphthalen-1-yl)oxy)pyridin-2-yl)amino)-2-(dimethylamino)-N-(2-(2-(2-hydroxyethoxy)ethoxy)ethyl) benzamide]: the “% Viability at 1 μg/mL” value is recorded as 89.8%, the “% Viability at 5 μg/mL” value is 39.9% and the “% Viability at 20 μg/mL” value is listed as 22.5%.

As to `COc1c(NC(=O)Nc2ccc(Oc3ccnc(Nc4ccc(C(=O)NCCCN5CCOCC5)c(O)c4)c3)c3ccccc23)cc(C(C)(C)C)cc1NS(C)(=O)=O` [Example 29, 4-((4-((4-(3-(5-(tert-Butyl)-2-methoxy-3-(methylsulfonamido)phenyl)ureido)naphthalen-1-yl)oxy)pyridin-2-yl)amino)-2-hydroxy-N-(3-morpholinopropyl)benzamide], the “% Viability at 1 μg/mL” value stood at 101.2%, the “% Viability at 5 μg/mL” value came out at 46.6% and the “% Viability at 20 μg/mL” value is listed as 2.0%.

Consider `COc1cc(Nc2nccc(Oc3ccc(NC(=O)Nc4cc(C(C)(C)C)cc(NS(C)(=O)=O)c4OC)c4ccccc34)n2)ccc1S(N)(=O)=O` [Example 28, 4-((4-((4-(3-(5-(tert-Butyl)-2-methoxy-3-(methylsulfonamido)phenyl)ureido)naphthalen-1-yl)oxy)pyrimidin-2-yl)amino)-2-methoxybenzenesulfonamide], for which the “% Viability at 1 μg/mL” value stood at 100.0%, the “% Viability at 5 μg/mL” value is reported as 41.1% and the “% Viability at 20 μg/mL” value was found to be 18.9%.

As to `COc1cc(Nc2cc(Oc3ccc(NC(=O)Nc4cc(C(C)(C)C)cc(NS(C)(=O)=O)c4OC)c4ccccc34)ccn2)ccc1C(=O)N[C@@H]1CCN(C)C1` [17(cq), (R)-4-((4-((4-(3-(5-(tert-Butyl)-2-methoxy-3-(methylsulfonamido)phenyl)ureido)-naphthalen-1-yl)oxy)pyridin-2-yl)amino)-2-methoxy-N-(1-methylpyrrolidin-3-yl)benzamide], the “% Viability at 1 μg/mL” value was found to be 74.3%, the “% Viability at 5 μg/mL” value is on record as 9.0% and the “% Viability at 20 μg/mL” value worked out at 0.7%.

In the case of `COc1cc(Nc2cc(Oc3ccc(NC(=O)Nc4cc(C(C)(C)C)cc(NS(C)(=O)=O)c4OC)c4ccccc34)ccn2)ccc1-n1ccccc1=O` [Example 31, N-(5-(tert-Butyl)-2-methoxy-3-(3-(4-((2-((3-methoxy-4-(2-oxopyridin-1 (2H)-yl)phenyl)amino)-pyridin-4-yl)oxy)naphthalen-1-yl)ureido)phenyl)methanesulfonamide], the “% Viability at 1 μg/mL” value came to 99.9%, the “% Viability at 5 μg/mL” value was 97.6% and the “% Viability at 20 μg/mL” value is recorded as 99.0%.

For `COc1cc(Nc2cc(Oc3ccc(NC(=O)Nc4cc(C(C)(C)C)cc(NS(C)(=O)=O)c4OC)c4ccccc34)ccn2)ccc1C(=O)NCCC1CCNCC1` [Example 27, 4-((4-((4-(3-(5-(tert-Butyl)-2-methoxy-3-(methylsulfonamido)phenyl)ureido)naphthalen-1-yl)oxy)pyridin-2-yl)amino)-2-methoxy-N-(2-(piperidin-4-yl)ethyl)benzamide], the “% Viability at 1 μg/mL” value stood at 101.2%, the “% Viability at 5 μg/mL” value is on record as 94.9% and the “% Viability at 20 μg/mL” value is listed as 1.7%.
